Test results: patent US11780830B2, “Triazolone derivatives or salts thereof and pharmaceutical compositions comprising the same” (YUHAN CORPORATION, priority 2018, dated 2023)
Counter-ions that a name gives are not always drawn.

Key:
Assay type in all cases: biochemical
[1] = biological target: T1, recombinant human VAP-1 (Homo sapiens, UniProt Q16853); assay: Activity on recombinant human VAP-1, HRP-coupled Amplex Red hydrogen peroxide assay; details: substrate 1 mM benzylamine; compound incubated with enzyme at 37° C. for 30 minutes; pH 7.4; read-out: Inhibitory Activity (IC50, nM) human VAP-1
T1 construct: purchased R&D systems
T1 sequence (Q16853 1-763): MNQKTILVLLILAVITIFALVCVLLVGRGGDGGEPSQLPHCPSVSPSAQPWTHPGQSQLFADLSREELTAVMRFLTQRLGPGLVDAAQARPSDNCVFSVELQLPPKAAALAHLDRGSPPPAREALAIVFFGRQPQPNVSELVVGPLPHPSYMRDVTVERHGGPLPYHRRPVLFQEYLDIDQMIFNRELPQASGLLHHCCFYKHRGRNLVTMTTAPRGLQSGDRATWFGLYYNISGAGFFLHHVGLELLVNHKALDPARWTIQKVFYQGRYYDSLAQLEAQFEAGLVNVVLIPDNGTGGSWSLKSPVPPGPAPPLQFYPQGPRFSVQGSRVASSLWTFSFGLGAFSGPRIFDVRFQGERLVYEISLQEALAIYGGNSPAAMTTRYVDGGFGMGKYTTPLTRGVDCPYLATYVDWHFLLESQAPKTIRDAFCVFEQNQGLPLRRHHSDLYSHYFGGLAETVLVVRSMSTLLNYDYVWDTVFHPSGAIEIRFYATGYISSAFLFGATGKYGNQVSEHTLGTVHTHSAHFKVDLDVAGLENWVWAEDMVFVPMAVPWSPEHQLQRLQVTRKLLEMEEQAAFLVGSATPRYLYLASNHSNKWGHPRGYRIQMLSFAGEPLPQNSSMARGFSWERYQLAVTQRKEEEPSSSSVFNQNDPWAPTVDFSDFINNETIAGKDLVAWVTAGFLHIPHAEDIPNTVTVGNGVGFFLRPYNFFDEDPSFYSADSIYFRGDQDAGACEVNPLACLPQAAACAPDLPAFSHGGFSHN
Protocol: (§1) The compounds according to the present technology were evaluated in terms of activity on recombinant human VAP-1 (R&D systems) by measuring the level of hydrogen peroxide in horseradish peroxidase (HRP)-coupled reaction using Amplex Red Hydrogen Peroxide Assay Kit (Molecular Probes, Invitrogen, USA). The experiment was carried out at room temperature using benzylamine as a substrate. In the HRP-coupled reaction, hydrogen peroxide oxidation of 10-acetyl-3,7-dihydroxyphenoxazine (Amplex Red reagent) produces resorufin, which is a highly fluorescent compound. Briefly, the test compound was dissolved in dimethyl sulfoxide (DMSO) at a concentration of 20 mM. The dose-response assessment was made by 1:3 serial dilution in DMSO, thereby creating an 8 point curve. The concentration of the upper part was controlled according to the efficacy of the compounds, followed by dilution with a reaction buffer solution to obtain a final DMSO concentration less than 1%. To each well of a 96 black well plate, human VAP-1 purified in 50 mM sodium phosphate buffer solution (pH7.4) was added. The test compounds dissolved in DMSO were incubated with the human VAP-1 enzymes at 37° C. for 30 minutes. After 30-minute incubation, each well is added with a reaction mixture containing 200 uM Amplex Red reagent prepared from 50 mM sodium phosphate buffer solution (pH 7.4), 1 mM benzylamine, and 1 U/mL HRP. Fluorescence intensity was measured at several time points during 1-2 hours using a microplate reader (Flexstation3, Molecular Devices) under the wavelength condition exciting at 544 nm and reading the emission at 590 nm. The inhibitory effect of the compounds was measured as a decrease (%) in the signal rate as compared to the control group without any inhibitor (only diluted DMSO). Data was fixed to a logistic model with four variables and IC50 value was calculated using GraphPad Prism program.

[2] = biological target: T2, recombinant human DAO (diamine oxidase) (Homo sapiens, UniProt P19801); assay: Activity on recombinant human DAO, method similar to the VAP-1 assay; details: substrate 1 mM putrescine; read-out: Inhibitory Activity (IC50, nM) DAO
T2 construct: purchased R&D systems
T2 sequence (P19801 20-751): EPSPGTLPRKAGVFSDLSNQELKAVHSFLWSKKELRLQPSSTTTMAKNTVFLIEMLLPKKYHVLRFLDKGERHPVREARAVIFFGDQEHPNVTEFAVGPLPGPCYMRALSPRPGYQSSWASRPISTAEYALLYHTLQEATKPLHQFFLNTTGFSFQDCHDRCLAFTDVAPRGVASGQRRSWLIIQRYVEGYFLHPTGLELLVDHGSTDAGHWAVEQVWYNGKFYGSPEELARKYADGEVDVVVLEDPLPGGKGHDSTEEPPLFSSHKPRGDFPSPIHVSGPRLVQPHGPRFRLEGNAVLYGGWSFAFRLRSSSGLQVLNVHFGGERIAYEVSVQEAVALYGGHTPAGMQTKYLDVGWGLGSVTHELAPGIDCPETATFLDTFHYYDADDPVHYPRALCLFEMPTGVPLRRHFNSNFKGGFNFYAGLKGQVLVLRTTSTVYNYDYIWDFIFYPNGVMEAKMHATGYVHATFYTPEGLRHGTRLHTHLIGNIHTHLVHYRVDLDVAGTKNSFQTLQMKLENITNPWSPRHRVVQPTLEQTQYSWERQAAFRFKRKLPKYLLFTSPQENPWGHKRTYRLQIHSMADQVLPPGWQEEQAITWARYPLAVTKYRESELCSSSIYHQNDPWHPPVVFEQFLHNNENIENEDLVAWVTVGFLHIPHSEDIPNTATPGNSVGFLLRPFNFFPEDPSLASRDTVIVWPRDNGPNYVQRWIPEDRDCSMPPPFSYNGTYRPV
Protocol: as §1
(§2) In addition, the compounds according to the present technology were evaluated in terms of activity on a recombinant human MAO-A (monoamine oxidase-A, Sigma-Aldrich) and a recombinant human MAO-B (monoamine oxidase-B, Sigma-Aldrich) by using as substrates, 0.5 mM tyramine and 1 mM benzylamine, respectively, with a method similar to the activity evaluation method for recombinant human VAP-1. The compounds according to the present technology were also evaluated in terms of activity on a recombinant human DAO (diamine oxidase, R&D systems) by using as a substrate 1 mM putrescine with a method similar to the activity evaluation method for recombinant human VAP-1.

[3] = biological target: T3, recombinant human MAO-B (monoamine oxidase-B) (Homo sapiens, UniProt P27338); assay: Activity on recombinant human MAO-B, method similar to the VAP-1 assay; details: substrate 1 mM benzylamine; read-out: Inhibitory Activity (IC50, nM) MAO-B
T3 construct: purchased Sigma-Aldrich
T3 sequence (P27338 1-520): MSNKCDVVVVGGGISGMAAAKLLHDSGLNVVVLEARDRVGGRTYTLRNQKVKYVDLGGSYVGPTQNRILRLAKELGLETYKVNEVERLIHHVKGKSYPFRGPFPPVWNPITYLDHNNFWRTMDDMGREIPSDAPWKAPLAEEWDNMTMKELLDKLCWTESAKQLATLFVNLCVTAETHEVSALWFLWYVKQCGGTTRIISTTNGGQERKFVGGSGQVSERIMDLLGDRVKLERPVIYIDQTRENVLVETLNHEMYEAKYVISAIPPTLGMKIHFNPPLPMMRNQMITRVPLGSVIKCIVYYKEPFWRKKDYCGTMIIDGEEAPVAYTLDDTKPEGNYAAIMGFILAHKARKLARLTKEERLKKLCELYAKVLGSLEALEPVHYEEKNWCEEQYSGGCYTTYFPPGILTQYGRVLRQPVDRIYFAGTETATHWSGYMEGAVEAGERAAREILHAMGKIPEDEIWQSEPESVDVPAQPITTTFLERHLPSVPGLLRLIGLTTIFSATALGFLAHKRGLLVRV
Protocol: as §1, §2

[4] = biological target: T4, recombinant human MAO-A (monoamine oxidase-A) (Homo sapiens, UniProt P21397); assay: Activity on recombinant human MAO-A, method similar to the VAP-1 assay; details: substrate 0.5 mM tyramine; read-out: Inhibitory Activity (IC50, nM) MAO-A
T4 construct: purchased Sigma-Aldrich
T4 sequence (P21397 1-527): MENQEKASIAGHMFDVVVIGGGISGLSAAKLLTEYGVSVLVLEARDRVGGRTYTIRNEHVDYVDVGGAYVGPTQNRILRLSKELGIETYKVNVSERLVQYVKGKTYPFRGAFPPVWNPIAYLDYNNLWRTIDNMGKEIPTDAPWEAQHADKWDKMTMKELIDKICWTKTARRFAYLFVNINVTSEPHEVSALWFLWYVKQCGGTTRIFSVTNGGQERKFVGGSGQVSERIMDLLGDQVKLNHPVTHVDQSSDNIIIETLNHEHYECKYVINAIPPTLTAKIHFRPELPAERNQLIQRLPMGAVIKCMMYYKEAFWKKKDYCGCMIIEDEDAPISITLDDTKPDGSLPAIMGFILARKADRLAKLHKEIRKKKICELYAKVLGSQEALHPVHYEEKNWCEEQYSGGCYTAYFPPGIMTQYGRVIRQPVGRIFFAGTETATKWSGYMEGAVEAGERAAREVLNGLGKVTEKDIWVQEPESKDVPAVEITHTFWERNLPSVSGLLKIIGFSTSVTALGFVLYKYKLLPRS
Protocol: as §1, §2

Row | Structure (SMILES) | IC50 [1] | IC50 [2] | IC50 [3] | IC50 [4]
1 | CS(=O)(=O)Nc1ccc(-c2ccc(Cn3cnn(C/C(=C/F)CN)c3=O)s2)cc1 [Example 7, N-4-[5-(1-[(2E)-2-(aminomethyl)-3-fluoroprop-2-en-1-yl]-5-oxo-1,5-dihydro-4H-1,2,4-triazol-4-ylmethyl)thiophen-2-yl]phenylmethansulfonamide hydrochloride] | 0.4 nM | 1000 nM | 11000 nM | 35000 nM
2 | CNS(=O)(=O)c1cccc(-c2ccc(Cn3cnn(C/C(=C/F)CN)c3=O)s2)c1 [Example 8, 3-[5-(1-[(2E)-2-(aminomethyl)-3-fluoroprop-2-en-1-yl]-5-oxo-1,5-dihydro-4H-1,2,4-triazol-4-ylmethyl)thiophen-2-yl]-N-methylbenzenesulfonamide hydrochloride] | 1.2 nM | 520 nM | 210 nM | > 100000 nM
3 | CC(C)(C)NS(=O)(=O)c1cncc(-c2ccc(Cn3cnn(C/C(=C/F)CN)c3=O)s2)c1 [Example 186, 5-[5-({1-[(2E)-2-(aminomethyl)-3-fluoroprop-2-en-1-yl]-5-oxo-1,5-dihydro-4H-1,2,4-triazol-4-yl}methyl)thiophen-2-yl]-N-tert-butylpyridin-3-sulfonamide] | 2.4 nM | 140 nM | 20000 nM | –
4 | NC/C(=C\F)Cn1ncn(Cc2ccc(-c3ccc(S(=O)(=O)N4CCOCC4)cc3)s2)c1=O [Example 198, 2-[(2E)-2-(aminomethyl)-3-fluoroprop-2-en-1-yl]-4-({5-[4-(morpholin-4-ylsulfonyl)phenyl]thiophen-2-yl}methyl)-2,4-dihydro-3H-1,2,4-triazol-3-one] | 2.2 nM | 220 nM | 6200 nM | –

More lines, now with the values ahead:

Row | IC50 [1] | IC50 [2] | IC50 [3] | IC50 [4] | Structure (SMILES)
5 | 5.7 nM | 3020 nM | 14 nM | 18000 nM | NC/C(=C/F)Cn1ncn(Cc2ccc(Br)s2)c1=O [Example 1, 2-[(2Z)-2-(aminomethyl)-3-fluoroprop-2-en-1-yl]-4-[(5-bromothiophen-2-yl)methyl]-2,4-dihydro-3H-1,2,4-triazol-3-one]
6 | 5.2 nM | 3300 nM | 14 nM | > 100000 nM | NC/C(=C\F)Cn1ncn(Cc2ccc(Br)s2)c1=O [Example 2, 2-[(2E)-2-(aminomethyl)-3-fluoroprop-2-en-1-yl]-4-[(5-bromothiophen-2-yl)methyl]-2,4-dihydro-3H-1,2,4-triazol-3-one hydrochloride]
7 | 4.7 nM | 860 nM | 21 nM | 72000 nM | NC/C(=C/F)Cn1ncn(Cc2ccc(-c3ccc(N)cc3)s2)c1=O [Example 3, 2-[(2Z)-2-(aminomethyl)-3-fluoroprop-2-en-1-yl]-4-[5-(4-aminophenyl)thiophen-2-yl]methyl-2,4-dihydro-3H-1,2,4-triazol-3-one hydrochloride]
8 | 4.6 nM | 9500 nM | 50 nM | 35000 nM | CN(C)c1cccc(-c2ccc(Cn3cnn(C/C(=C/F)CN)c3=O)s2)c1 [Example 4, 2-[(2E)-2-(aminomethyl)-3-fluoroprop-2-en-1-yl]-4-(5-[3-(dimethylamino)phenyl]thiophen-2-ylmethyl)-2,4-dihydro-3H-1,2,4-triazol-3-one hydrochloride]
9 | 3.3 nM | – | 680 nM | > 100000 nM | CN(C)c1ccc(-c2ccc(Cn3cnn(C/C(=C/F)CN)c3=O)s2)cc1 [Example 5, 2-[(2E)-2-(aminomethyl)-3-fluoroprop-2-en-1-yl]-4-(5-[4-(dimethylamino)phenyl]thiophen-2-ylmethyl)-2,4-dihydro-3H-1,2,4-triazol-3-one hydrochloride]
10 | 3.4 nM | 2900 nM | 70 nM | > 100000 nM | CN(C)c1cc(-c2ccc(Cn3cnn(C/C(=C/F)CN)c3=O)s2)ccc1F [Example 6, 2-[(2E)-2-(aminomethyl)-3-fluoroprop-2-en-1-yl]-4-(5-[3-(dimethylamino)-4-fluorophenyl]thiophen-2-ylmethyl)-2,4-dihydro-3H-1,2,4-triazol-3-one hydrochloride]
